This is an account of results in US8598316B2, “Molecules that selectively home to vasculature of pre-malignant dysplastic lesions or malignancies” (priority 2003, dated 2013).

The test system of one assay is mitochondrial membranes. Particulars: at a concentration of 10 μM; cited from earlier work.
The test system of assay [1] is CD31-positive endothelial cells. The assay is described as follows: Immunohistochemical localization of intravenously injected phage (anti-T7 / anti-CD31). In kind it is in vivo, mouse. Particulars: phage-displayed peptide, intravenous; 4 to 6 month-old dysplasia-bearing or 9 to 12 month-old tumor-bearing K14-HPV16 mice. The text has this: To characterize the nature of the selectivity of the dysplasia- and tumor-homing peptides, K14-HPV16 mice were intravenously injected with cloned phage displaying a particular peptide, and phage localization visualized using histological procedures. Peptide localization was further analyzed with chemically synthesized fluorescein-labeled peptides.
Phage were intravenously injected into 4 to 6 month-old dysplasia-bearing mice with dysplasia-homing phage bearing CSRPRRSEC (SEQ ID NO: 3). In parallel, a set of 9 to 12 month-old tumor-bearing mice were infused with one of the tumor-homing phage CGTKRKC (SEQ ID NO: 11), CGKRK (SEQ ID NO: 6) or CDTRL (SEQ ID NO: 7). Various tissues were collected from each mouse and analyzed by double label immunohistochemical staining using an anti-T7 antibody to detect phage and an anti-CD31 antibody to detect endothelial cells of the vasculature.
(§1) Areas of skin, tumors and various organs were collected and either fixed in formalin, dehydrated through serial alcohols and embedded in paraffin, or directly embedded in OCT medium (Fisher Scientific). K14-HPV16 dysplasia and tumor samples were graded by evaluating hematoxylin & eosin and anti-keratin staining on 5 μm paraffin sections under a light microscope (Coussens et al., supra, 1996). Rat anti-mouse CD31 and rat anti-mouse Meca-32 (BD Pharmingen; San Diego, Calif.) were used for vascular immunostaining on 10 μm frozen sections. Anti-phage staining and biodistribution of fluorescein-labeled peptides were performed essentially as described in Laakkonen et al., supra, 2002.

Assay [2] relates to K14-HPV16 tumor-derived cell suspension. The assay is described as follows: Ex vivo phage binding to tumor cell suspension. In kind it is cell-based, mouse. The following applies: phage-displayed peptide. As for the experimental part: (§2) To isolate peptides specific for dysplastic lesions, two rounds of selection were performed ex vivo followed by one round of selection in vivo. […] Phage selections and validations were performed essentially as described in Laakkonen et al., Nat. Med. 8:751-755 (2002).
(§3) To isolate phage that selectively home to squamous cell carcinomas (SCCs), two rounds of ex vivo panning selections were performed followed by two rounds of in vivo panning in K14-HPV16 mice having tumors histologically confirmed as squamous cell carcinoma grades II-IV (Coussens, supra, 1996). The enrichment rose from 6-fold relative to non-recombinant phage in the second ex vivo round to greater than 70-fold relative to non-recombinant phage in the second in vivo round (the fourth sequential round overall) as shown in FIG. 1B. From 192 sequenced phage clones, fifteen were selected for further analysis based on their frequency (48 from ex vivo round 2, 48 from in vivo round 1, and 96 from in vivo round 2) and their increased prevalence in the in vivo selections. Of these, four clones displaying the following amino acid sequences bound to a K14-HPV16 tumor-derived cell suspension ex vivo: CGKRK (SEQ ID NO: 6), CGTKRKC (SEQ ID NO: 11), CDTAVVEGL (SEQ ID NO: 12) and CDTRL (SEQ ID NO: 7). Phage-displaying the sequence CDTAVVEGL (SEQ ID NO: 12) also were 340-fold enriched in tumors in vivo relative to non-recombinant control phage.

Another assay has as its system squamous cell carcinomas. Kind of assay: In vivo homing of individual phage clones to skin tumors of K14-HPV16 mice. Details: species or system mouse. Particulars: phage-displayed peptide, intravenous injection, tumor-bearing K14-HPV16 mice.
Description: (§4) To test homing specificity of the selected peptides, purified phage displaying a single recombinant sequence were intravenously injected into K14HPV16 mice bearing protuberant ear or trunk tumors at 9 to 12 months of age to assess homing to squamous cell carcinomas, or alternatively injected into younger K14HPV16 mice presenting with multifocal dysplasias but no tumors. Both neoplastic tissues and normal control organs were collected and assayed for phage accumulation. Phage displaying the peptide CRAKSKVAC (SEQ ID NO: 9), which appeared with the highest frequency in both the ex vivo and in vivo sequence pools (5 and 15 times, respectively), were 1500-fold enriched in dysplastic skin relative to non-recombinant control phage. However, phage displaying peptide. […] Several other dysplasia-selected clones also differentiated poorly between control tissues and dysplastic skin; seven of the nine dysplasia-selected phage clones appeared to be responsible for the overall enrichment of recombinant phage in control tissues in the final in vivo round of selection as shown in FIG. 1A (right panel), and were not studied further.
as §3

The subject of assay [3] is normal skin and control tissues. Kind of assay: In vivo phage accumulation in normal skin, hyperplastic skin and control organs. Details: species or system mouse. Particulars: phage-displayed peptide; for accumulation in control tissues / normal organs: intravenous injection; for homing to normal skin of FVB/n mice: wild-type FVB/n mice.
Description: as §4

In a further assay the test system is dysplastic skin lesions. Kind of assay: In vivo homing of individual phage clones to dysplastic skin of K14HPV16 mice. The following applies: phage-displayed peptide, intravenous injection. On the set-up: species or system mouse. Here is the method: as §2, §4
For assay [4], the system named is dysplastic skin vasculature and tumor vasculature. The assay is described as follows: Localization of intravenously injected fluorescein-labeled peptides in K14-HPV16 mice (Meca-32 staining). In kind it is in vivo, mouse. The following applies: intravenous, 10 minutes; for peptide localization in dysplastic skin of tumor-bearing mice / peptide localization in squamous tumor: tumor-bearing K14-HPV16 mice; for peptide localization in dysplastic skin of non-tumor-bearing mice: younger dysplasia-bearing K14-HPV16 mice. Here is the method:
Both younger dysplasia-bearing and older tumor-bearing K14-HPV16 mice were injected with fluorescein-labeled peptides. After 10 minutes, both normal and neoplastic tissues were collected; tissue sections were prepared and stained with antibodies to both CD31 and a second endothelial marker, the cell-surface antigen Meca-32. Similar results were obtained with the two endothelial marker antibodies; the data for Meca-32 are shown in FIG. 3, in which localization of intravenously infused peptides and antibody was visualized by two-color fluorescence microscopy.
as §1

Assay [5] relates to hyperplastic skin of 1 to 2 month-old K14-HPV16 mice. Kind of assay: Ex vivo phage binding to hyperplastic skin. In kind it is cell-based, mouse. The following applies: phage-displayed peptide.
For assay [6], the system named is angiogenic islets (dysplasias) or tumors in the RIP-Tag transgenic mouse model of pancreatic islet cell carcinoma. Kind of assay: Fluorescein-labeled peptide homing, RIP-Tag transgenic model. In kind it is in vivo. Particulars: intravenous. Here is the method:
(§5) To analyze homing selectivity, the K14-HPV16 squamous cell cancer-homing peptides, CGKRK (SEQ ID NO: 6) and CDTRL (SEQ ID NO: 7), were analyzed for the ability to home to endothelium in tumors of different tissue origins and in tumors localized to different anatomical locations. In particular, three subcutaneously implanted tumors and two tumors produced in transgenic animal models were examined for accumulation of fluorescein-labeled peptides following intravenous injection
(§6) RIP1-Tag2 mice were used at 12 weeks of age, at which time all mice had pancreatic islet tumors. MMTV-PyMT mice were 4 to 6 months old and carried palpable mammary tumors. Cells for subcutaneous inoculation to produce transplant tumors were cultured in 10% fetal calf serum (FCS) in Dulbecco's Modified Eagle's Media (DMEM). Tumors were generated by subcutaneously injecting 10^6 cells into the chest skin of FVB/n (PDSC5) or Balb/c nude (MDA-MB-435 and C8161) mice. Mice bearing subcutaneous transplant tumors had tumors with an approximate diameter of 1 centimeter. PDSC5 tumors and MDA-MB-435 xenografts reached this size about 9 weeks post-injection while C8161 xenografts reached a size of 1 cm about three weeks post-injection.

The test system of assay [7] is C8161 human melanoma line. The assay is described as follows: Fluorescein-labeled peptide homing, C8161 xenograft. In kind it is in vivo, mouse. The following applies: intravenous, subcutaneous tumor in Balb/c nude mice. As for the experimental part:
as §5, §6

The test system of assay [8] is breast carcinomas in the MMTV-PyMT transgenic mouse model. Kind of assay: Fluorescein-labeled peptide homing, MMTV-PyMT transgenic model. In kind it is in vivo. The following applies: intravenous. As for the experimental part:
as §5, §6

For assay [9], the system named is MDA-MB-435 human breast cancer line. Kind of assay: Fluorescein-labeled peptide homing, MDA-MB-435 xenograft. In kind it is in vivo, mouse. Particulars: for homing to MDA-MB-435 xenograft: intravenous, subcutaneous tumor in Balb/c nude mice. As for the experimental part: as §5, §6
The test system of assay [10] is PDSC5, a K14-HPV16 tumor-derived cell line. The assay is described as follows: Fluorescein-labeled peptide homing, PDSC5 subcutaneous transplant tumor. In kind it is in vivo, mouse. Particulars: intravenous, subcutaneous tumor in FVB/n mice. Here is the method:
as §5, §6

A further assay concerns cultured tumor cells. Kind of assay: Binding to cultured tumor cells. In kind it is cell-based.

On to D(KLAKLAK)2, for which the mitochondrial swelling entry with mitochondrial membranes was “marked mitochondrial swelling”.

For CGTKRKC (phage-displayed), the “tissue localization of phage by immunohistochemical staining” value (“tissue localization of phage” for short) in [1] is reported as “detected to a lesser extent in dysplastic skin of tumor-bearing mice”. The “binding to K14-HPV16 tumor-derived cell suspension ex vivo” value in assay [2] is reported as “bound”.

For CDTAVVEGL (phage-displayed), the “binding to K14-HPV16 tumor-derived cell suspension ex vivo” value in assay [2] is “bound”. In addition, in the assay with squamous cell carcinomas, the “enrichment in tumors in vivo relative to non-recombinant control phage” value is recorded as 340 fold.

For CRAKSKVAC (phage-displayed), in assay [3], the “accumulation in control tissues / normal organs” value was “accumulated with similar frequency in normal skin, kidney and brain”. Besides, the “enrichment in dysplastic skin relative to non-recombinant control phage” value in the assay with dysplastic skin lesions came to 1500 fold.

For the substance “CSRPRRSEC [dysplasia-homing peptide from CX7C library]”, in assay [4], the “peptide localization in dysplastic skin of tumor-bearing mice” value is on record as “co-localized with Meca-32 in dysplastic skin vasculature”, the “peptide localization in squamous tumor” value is “not detected within the squamous tumor” and the “peptide localization in dysplastic skin of non-tumor-bearing mice” value is “co-localized with Meca-32 in dysplastic skin vasculature”. In addition, in [1], the “tissue localization of phage” value is “accumulated in dysplastic skin”. In addition, in assay [3] (in vivo), the “homing to normal skin of FVB/n mice” value is “did not home to normal skin of FVB/n mice”. Further, in assay [3], the “accumulation in control tissues / normal organs” value is recorded as “did not significantly accumulate in control tissues”. Moreover, in the assay with dysplastic skin lesions, the “enrichment in dysplastic skin relative to non-recombinant control phage” value was around 350 fold; the “homing to dysplastic skin” value was “effectively homed to dysplastic chest skin and dysplastic ear skin”. In the assay with dysplastic skin lesions (listed as CSRPRRSRC), the “homing to dysplastic skin” value was “maintained the ability to home”. In addition, the homing to tumor result with squamous cell carcinomas is “little homing to the tumor”. In [5], the “binding to hyperplastic skin ex vivo” value was “did not bind to hyperplastic skin”. Also, in [6], the “homing to angiogenic islets or tumors of RIP-Tag mice” value (“homing to angiogenic islets or tumors” below) is “does not recognize pre-malignant lesions”.

In the case of CGKRK [tumor-homing peptide], the “homing to C8161 melanoma xenograft” value in assay [7] is recorded as “homed to cells in each of the three transplant tumors”. Further, in assay [4], the “peptide localization in dysplastic skin of tumor-bearing mice” value is reported as “at lower levels”, the “peptide localization in squamous tumor” value is “primarily detected in tumor vasculature” and the “peptide localization in dysplastic skin of non-tumor-bearing mice” value is on record as “not detected in the dysplastic skin of younger non-tumor bearing mice”. Besides, in assay [8], the “homing to MMTV-PyMT breast carcinomas” value was “did home to breast carcinomas”. Moreover, the “tissue localization of phage” value in assay [1] is recorded as “accumulated in tumor tissue”. In assay [3], the “accumulation in control tissues / normal organs” value was “very low levels”. The “binding to K14-HPV16 tumor-derived cell suspension ex vivo” value in [2] is “bound”. The “homing to dysplastic skin” value with dysplastic skin lesions is on record as “Some homing to dysplastic lesions”. In the assay with squamous cell carcinomas, the “enrichment in tumors in vivo relative to non-recombinant control phage” value was 80 to 1,000 fold and the homing to tumor entry is given as “marked preference for the tumor”. In addition, the “subcellular localization in vascular cells” value in assay [9] (FIG. 4D, endothelial cells (CD31, Meca-32)) was “localized in the cytoplasm and nuclei of vascular cells”. In addition, in assay [9], the “homing to MDA-MB-435 xenograft” value is listed as “homed to cells in each of the three transplant tumors”. The “homing to angiogenic islets or tumors” value in [6] is “neither peptide CGKRK (SEQ ID NO: 6) nor CDTRL (SEQ ID NO: 7) homed to angiogenic islets (dysplasias) or tumors”. In addition, the “homing to PDSC5 transplant tumor” value in assay [10] is “homed to cells in each of the three transplant tumors”. Also, the “binding to cultured tumor cells” value in the assay with cultured tumor cells is given as “bind a range of cultured tumor cells”.

For CDTRL [tumor-homing peptide], in assay [7], the “homing to C8161 melanoma xenograft” value was “accumulated only in the melanoma xenografts”. Also, in [4], the “peptide localization in dysplastic skin of tumor-bearing mice” value is “at lower levels”, the “peptide localization in squamous tumor” value was “primarily detected in tumor vasculature” and the “peptide localization in dysplastic skin of non-tumor-bearing mice” value is “not detected in the dysplastic skin of younger non-tumor bearing mice”. The “homing to MMTV-PyMT breast carcinomas” value in assay [8] is “did home to breast carcinomas”. Besides, in assay [1], the “tissue localization of phage” value is “localized to large, dilated vessels throughout the dysplastic and hyperplastic skin”. The “affinity for hyperplastic skin” value in assay [3] (in vivo, K14-HPV16 mice) was “little affinity for hyperplastic skin”. For the same substance, the “homing to normal skin of FVB/n mice” value in [3] (in vivo) is “no significant homing to normal skin”. Besides, the “binding to K14-HPV16 tumor-derived cell suspension ex vivo” value in assay [2] is “bound”. Moreover, the homing to tumor result with squamous cell carcinomas was “variable preference for squamous cell carcinomas and dysplastic lesions”. Besides, the “homing to MDA-MB-435 xenograft” value in [9] is recorded as “accumulated only in the melanoma xenografts”. The “homing to angiogenic islets or tumors” value in [6] is given as “neither peptide CGKRK (SEQ ID NO: 6) nor CDTRL (SEQ ID NO: 7) homed to angiogenic islets (dysplasias) or tumors”. In addition, the “homing to PDSC5 transplant tumor” value in assay [10] is reported as “accumulated only in the melanoma xenografts”. For the same substance, the “binding to cultured tumor cells” value with cultured tumor cells is given as “bind a range of cultured tumor cells”.

With CNRRTKAGC (phage-displayed), the “accumulation in control tissues / normal organs” value in assay [3] is “did not appreciably home to normal organs”. The “homing to dysplastic skin” value with dysplastic skin lesions is recorded as “highly selective for dysplastic skin”.
